Measurements from patent US20250154169A1, “COMPOUNDS AND METHODS FOR MODULATING SPLICING” (REMIX THERAPEUTICS INC., priority 2021, published 2025).
Where two headings read alike, the source gives them in different places.

Experiments:
Type in all cases: cell-based, human
MYB mRNA = assay: Splicing RT-qPCR assay, MYB canonical (CJ) and alternative (AJ) junction mRNA; conditions: Homo sapiens; for AC50: read-out: MYB AJ (AC50, increase in alternative junction mRNA)
Method in brief: (§1)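 A673 or K562 cells were treated 24 h at 37 °C with an 11-point 3-fold compound dilution series (top 10 uM, DMSO ≤0.25%). Lysates went to one-step RT-qPCR measuring canonical (CJ) and alternative-exon (AJ) junction transcripts, normalized to GAPDH, GUSB or PPIA.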

HTT mRNA [1] = assay: Splicing RT-qPCR assay, HTT canonical (CJ) and alternative (AJ) junction mRNA; conditions: Homo sapiens, A673 or K562 cells, 24 hours compound treatment; for IC50: 24 h, read-out: HTT CJ (IC50, decrease in canonical junction mRNA); for AC50: read-out: HTT AJ (AC50, increase in alternative junction mRNA)
Method in brief: as §1

SMN2 mRNA = assay: Splicing RT-qPCR gene panel, SMN2 canonical junction (CJ) mRNA; conditions: Homo sapiens, Tables 4A/4B, read-out: SMN2 (IC50, decrease in CJ mRNA, gene panel)
Description: (§2) Compounds described herein were used to modulate RNA transcript abundance in cells. The expression of a target mRNA was measured by detecting the formation of an exon-exon junction in the canonical transcript (CJ). A compound mediated exon-inclusion event was detected by observing an increase in formation of a new junction with an alternative exon (AJ). Real-time qPCR assays were used to detect these splicing switches and interrogate the potency of various compounds towards different target genes. A high-throughput real time quantitative PCR (RT-qPCR) assay was developed to measure these two isoforms of the mRNA (CJ and AJ) for exemplary genes, such as HTT, SMN2, and MYB, together with a control housekeeping gene, GAPDH or GUSB or PPIA, used for normalization. Briefly, the A673 or K562 cell line was treated with various compounds described herein (e.g., compounds of Formula (I)). After treatment, the levels of the HTT, MYB, or SMN2 mRNA targets were determined from each sample of cell lysate by cDNA synthesis followed by qPCR.
(§3) The A673 cell line was cultured in DMEM with 10% FBS. Cells were diluted with full growth media and plated in a 96-well plate (15,000 cells in 100 ul media per well). The plate was incubated at 37° C. with 5% CO2 for 24 hours to allow cells to adhere. An 11-point 3-fold serial dilution of the compounds was made in DMSO then diluted in media in an intermediate plate. Compounds were transferred from the intermediate plate to the cell plate with the top dose at a final concentration of 10 uM in the well. Final DMSO concentration was kept at or below 0.25%. The cell plate was returned to the incubator at 37° C. with 5% CO2 for an additional 24 hours.
(§4) The K562 cell line was cultured in IMDM with 10% FBS. For K562, cells were diluted with full growth media and plated in either a 96-well plate (50,000 cells in 50 uL media per well) or a 384-well plate (8,000-40,000 cells in 45 uL media per well). An 11-point 3-fold serial dilution of the compounds were made in DMSO then diluted in media in an intermediate plate. Compound was transferred from the intermediate plate to the cell plate with the top dose at a final concentration of 10 uM in the well. Final DMSO concentration was kept at or below 0.25%. Final volume was 100 uL for 96-well plate and 50 uL for 384-well plate. The cell plate was then placed in an incubator at 37° C. with 5% CO2 for 24 hours.
(§5) The cells were then gently washed with 50 uL-100 uL cold PBS before proceeding to addition of lysis buffer. 30 uL-50 uL of room temperature lysis buffer with DNAse I (and optionally RNAsin) was added to each well. Cells were shaken/mixed thoroughly at room temperature for 5-10 minutes for lysis to take place and then 3 uL-5 uL of room temperature stop solution was added and wells were shaken/mixed again. After 2-5 minutes, the cell lysate plate was transferred to ice for RT-qPCR reaction setup. The lysates could also be frozen at −80° C. for later use.
(§6) In some cases, a direct lysis buffer was used. An appropriate volume of 3× lysis buffer (10 mM Tris, 150 mM NaCl, 1.5%-2.5% Igepal and 0.1-1 U/uL RNAsin, pH 7.4) was directly added to either K562 or A673 cells in media and mixed by pipetting 3 times. The plates were then incubated at room temperature with shaking/rocking for 20-50 minutes to allow for lysis to take place. After this time, the cell lysate plate was transferred to ice to set up for the RT-qPCR reactions. The lysates could also be frozen at −80° C. for later use.
(§7) To set up 10 uL RT-qPCR reactions, cell lysates were transferred to 384-well qPCR plates containing the master mix according to the table below. The plates were sealed, gently vortexed, and spun down before the run. The volumes were adjusted accordingly in some instances where the reaction was carried in 20 μL. The table below summarizes the components of the RT-qPCR reactions:
(§8) The RT-qPCR reaction was performed using a QuantStudio (ThermoFisher) under the following fast cycling conditions. […]

Target C mRNA = assay: Splicing RT-qPCR gene panel, Target C canonical junction (CJ) mRNA; conditions: Homo sapiens, Tables 4A/4B, read-out: Target C (IC50, decrease in CJ mRNA, gene panel)
Description: as §2, §3, §4, §5, §6, §7, §8

HTT mRNA [2] = assay: Splicing RT-qPCR gene panel, HTT canonical junction (CJ) mRNA; conditions: Homo sapiens, Tables 4A/4B, read-out: HTT (IC50, decrease in CJ mRNA, gene panel)
Description: as §2, §3, §4, §5, §6, §7, §8

[3] = 24 h, A673 or K562 cells, 24 hours compound treatment, RT-qPCR
[4] = 24 h, A673 or K562 cells, 24 hours compound treatment, RT-qPCR, read-out: MYB CJ (IC50, decrease in canonical junction mRNA)
[5] = Tables 4A/4B, canonical junction qPCR panel, read-out: MYB (IC50, decrease in CJ mRNA, gene panel)

SMILES	AC50 (MYB mRNA; [3]) [nM]	IC50 (MYB mRNA; [4]) [nM]	IC50 (MYB mRNA; [5]) [nM]	IC50 (HTT mRNA [1]) [nM]	AC50 (HTT mRNA [1]) [nM]	IC50 (SMN2 mRNA) [nM]	IC50 (Target C mRNA) [nM]	IC50 (HTT mRNA [2]) [nM]
Cc1cn2cc(NC(=O)c3ccc(N4CC[C@H](N(C)C)C4)c4cn(C)nc34)cc(F)c2n1 (single isomer, unassigned) [Compound 351, 4-[3-(dimethylamino)pyrrolidin-1-yl]-N-{8-fluoro-2-methylimidazo[1,2-a]pyridin-6-yl}-2-methylindazole-7-carboxamide]	< 100	< 100	< 100	1000 to 10000	1000 to 10000	< 100	> 10000	1000 to 10000
Cc1cn2cc(NC(=O)c3ccc(N4CCN[C@@H](C)C4)c4cn(C)nc34)cc(F)c2n1 (single isomer, unassigned) [Compound 352]	< 100	< 100	< 100	100 to 1000	100 to 1000	< 100	1000 to 10000	100 to 1000
Cc1cn2cc(NC(=O)c3ccc(N4CCN[C@H](C)C4)c4cn(C)nc34)cc(F)c2n1 (single isomer, unassigned) [Compound 353]	< 100	< 100	< 100	100 to 1000	100 to 1000	< 100	1000 to 10000	100 to 1000
CNC1CCN(c2ccc(C(=O)Nc3cc(F)c4nc(C)cn4c3)c3nn(C)cc23)C1 (stereo in doubt) [Compound 387, N-{8-fluoro-2-methylimidazo[1,2-a]pyridin-6-yl}-2-methyl-4-[(3R)-3-(methylamino)pyrrolidin-1-yl]indazole-7-carboxamide]	< 100	< 100	< 100	1000 to 10000	1000 to 10000	< 100	> 10000	1000 to 10000
CNC1CCN(c2ccc(C(=O)Nc3cc(F)c4nc(C)cn4c3)c3nn(C)cc23)C1 (stereo in doubt) [Compound 388, (S)—N-(8-fluoro-2-methylimidazo[1,2-a]pyridin-6-yl)-2-methyl-4-(3-(methylamino)pyrrolidin-1-yl)-2H-indazole-7-carboxamide]			< 100	1000 to 10000	1000 to 10000	< 100	> 10000	> 10000
Cc1cn2cc(NC(=O)c3c(F)cc(N4CCC(N(C)C)C4)c4cn(C)nc34)cc(F)c2n1 (stereo in doubt) [Compound 463, 4-[(3R)-3-(dimethylamino)pyrrolidin-1-yl]-6-fluoro-N-{8-fluoro-2-methylimidazo[1,2-a]pyridin-6-yl}-2-methylindazole-7-carboxamide]	< 100	< 100	< 100	100 to 1000	100 to 1000	< 100	> 10000	100 to 1000
Cc1cn2cc(NC(=O)c3c(F)cc(N4CCC(N(C)C)C4)c4cn(C)nc34)cc(F)c2n1 (stereo in doubt) [Compound 464, 4-[(3S)-3-(dimethylamino)pyrrolidin-1-yl]-6-fluoro-N-{8-fluoro-2-methylimidazo[1,2-a]pyridin-6-yl}-2-methylindazole-7-carboxamide]	< 100	< 100	< 100	100 to 1000	100 to 1000	< 100	1000 to 10000	100 to 1000
Cc1cn2cc(NC(=O)c3ccc(C4CCNCC4)c4c3OCC4)cc(F)c2n1 [Compound 188]	1000 to 10000	1000 to 10000	1000 to 10000	> 10000	> 10000	100 to 1000	1000 to 10000	> 10000
Cc1cn2cc(NC(=O)c3ccc(N(C)C4CC(C)(C)NC(C)(C)C4)c4cc(C)oc34)cc(F)c2n1 [Compound 201]	> 10000	> 10000	> 10000	> 10000	> 10000	1000 to 10000	> 10000	> 10000
Cc1cn2cc(NC(=O)c3ccc(N4CCC(N(C)C)C4)c4cc(C)oc34)cc(F)c2n1 (stereo not shown) [Compound 202]	< 100	100 to 1000	100 to 1000	> 10000	1000 to 10000	< 100	> 10000	> 10000
Cc1cn2cc(NC(=O)c3ccc(N4CCC(N5CCCC5)C4)c4cc(C)oc34)cc(F)c2n1 (stereo not shown) [Compound 204]	100 to 1000	100 to 1000	100 to 1000	1000 to 10000	1000 to 10000	< 100	1000 to 10000	1000 to 10000
Cc1cn2cc(NC(=O)c3ccc(N4CC5(CNC5)C4)c4cc(C)oc34)cc(F)c2n1 [Compound 205]	100 to 1000	100 to 1000	100 to 1000	100 to 1000	1000 to 10000	< 100	1000 to 10000	100 to 1000
